SMILES strings stand for the structures.

The assay relates to ANKA strain of P. berghei. The experiment in a line: Single dose STI in vivo screen in infected mice. The arrangement: species or system Plasmodium berghei. To be noted: for Survival (days) 3 mg/kg SSV po / Activity (%) 3 mg/kg SSV po: single 3 mg/kg po in SSV; for Activity (%) 3 mg/kg SSV po / Activity (%) 10 mg/kg SSV po: percent reduction in parasitemia on day 3; for Survival (days) 10 mg/kg SSV po: single 10 mg/kg po in SSV, untreated 6-7 days; for Activity (%) 10 mg/kg SSV po: single 10 mg/kg po in standard suspending vehicle (SSV) on day 1 post-infection. As to the method: In the single dose STI in vivo screen, Moro SPF or NMRI mice infected with the ANKA strain of P. berghei (groups of three mice) were treated on day one post-infection with trioxolanes dissolved or suspended in 3% ethanol and 7% Tween 80. […] SSV consists of 0.5% w/v CMC, 0.5% v/v benzyl alcohol, 0.4% v/v Tween 80, and 0.9% w/v sodium chloride in water. Antimalarial activity was measured by percent reduction in parasitemia on day three post-infection and survival times compared to an untreated control group. Survival to day 30 post-infection is considered to be a cure. […] Other factors influencing antimalarial activity include the stability of carbon radicals formed by β-scission subsequent to the initial electron transfer to the peroxide bond and the influence of steric effects remote from the peroxide bond on the interactions between carbon radicals and potential drug targets.
Moro NMRI male mice (Fu Albino specific pathogen free) weighing 18±2 g were infected intravenously (i.v.) with 2×10^7 P. berghei ANKA strain-infected erythrocytes from donor mice on day 0 of the experiment. From donor mice with circa 30% parasitemia, heparinized blood was taken and diluted in physiological saline to 10^8 parasitized erythrocytes per ml. An aliquot (0.2 ml) of this suspension was injected i.v. into experimental and control groups of mice. […] Throughout the experiments, mice were kept in groups of three or five animals in Makrolon type II cages in an air-conditioned animal room at 22 to 23° C.
They were administered per os (p.o.) in a total volume of 0.01 ml per gram of mouse. The activity of the compound was determined by a variety of methods outlined in subsequent sections. Survival time was also recorded, and survival to day 30 post-infection was considered to be a cure.

For `O=C(C[C@H]1CC[C@]2(CC1)OO[C@]1(O2)C2CC3CC(C2)CC1C3)N1CCN(c2ncccn2)CC1` [OZ314], the “Survival (days) 3 mg/kg SSV po” value is 6.6/6.6 days, the “Activity (%) 3 mg/kg SSV po” value worked out at 11%, the “Survival (days) 10 mg/kg SSV po” value is 6.6/6.6 days and the “Activity (%) 10 mg/kg SSV po” value is listed as 13%.

Consider `O=C(CNC(=O)c1cccnc1)NC[C@H]1CC[C@]2(CC1)OO[C@]1(O2)C2CC3CC(C2)CC1C3` [OZ316], for which the “Survival (days) 3 mg/kg SSV po” value is given as 8.0 days, the “Activity (%) 3 mg/kg SSV po” value is 7%, the “Survival (days) 10 mg/kg SSV po” value was determined as 10.0 days and the “Activity (%) 10 mg/kg SSV po” value was found to be 69%.

Take `CCOC(=O)CCNCC1CCC2(CC1)OOC1(O2)C2CC3CC(C2)CC1C3.Cc1ccc(S(=O)(=O)O)cc1` (stereo not drawn) [OZ318]: the “Survival (days) 3 mg/kg SSV po” value turned out to be 7.6 days, the “Activity (%) 3 mg/kg SSV po” value was found to be 29%, the “Survival (days) 10 mg/kg SSV po” value worked out at 12.4 days and the “Activity (%) 10 mg/kg SSV po” value is 88%.

For the compound `NC(=O)c1cn(C[C@H]2CC[C@]3(CC2)OO[C@]2(O3)C3CC4CC(C3)CC2C4)cn1` [OZ320], the “Activity (%) 3 mg/kg SSV po” value is 92%.

In the case of `NC(=O)c1cncn1C[C@H]1CC[C@]2(CC1)OO[C@]1(O2)C2CC3CC(C2)CC1C3` [OZ321], the “Survival (days) 3 mg/kg SSV po” value was found to be 9.8 days, the “Activity (%) 3 mg/kg SSV po” value came to 64% and the “Survival (days) 10 mg/kg SSV po” value is recorded as 14.0 days.

`O=S(=O)(C[C@H]1CC[C@]2(CC1)OO[C@]1(O2)C2CC3CC(C2)CC1C3)c1cccc[n+]1[O-]` [OZ324]: the “Survival (days) 3 mg/kg SSV po” value is listed as 7.4 days, the “Activity (%) 3 mg/kg SSV po” value stood at 26%, the “Survival (days) 10 mg/kg SSV po” value was 9.4 days and the “Activity (%) 10 mg/kg SSV po” value was determined as 60%.

Turning to `c1cnc(OC[C@H]2CC[C@]3(CC2)OO[C@]2(O3)C3CC4CC(C3)CC2C4)nc1` [OZ325], the “Survival (days) 3 mg/kg SSV po” value stood at 6.2 days, the “Activity (%) 3 mg/kg SSV po” value is given as 30% and the “Survival (days) 10 mg/kg SSV po” value is 8.8 days.

Take `c1cnc(NC[C@H]2CC[C@]3(CC2)OO[C@]2(O3)C3CC4CC(C3)CC2C4)nc1` [OZ326]: the “Survival (days) 3 mg/kg SSV po” value was found to be 6.0 days, the “Activity (%) 3 mg/kg SSV po” value is 7%, the “Survival (days) 10 mg/kg SSV po” value was 7.4 days and the “Activity (%) 10 mg/kg SSV po” value turned out to be 80%.

In the case of `NC(=O)[C@@H]1CCCN1C[C@H]1CC[C@]2(CC1)OO[C@]1(O2)C2CC3CC(C2)CC1C3` [OZ327], the “Survival (days) 3 mg/kg SSV po” value was 7.0 days, the “Activity (%) 3 mg/kg SSV po” value was found to be 72%, the “Survival (days) 10 mg/kg SSV po” value was 9.8 days and the “Activity (%) 10 mg/kg SSV po” value is reported as 97%.

Consider `[O-][n+]1ccccc1SC[C@H]1CC[C@]2(CC1)OO[C@]1(O2)C2CC3CC(C2)CC1C3` [OZ328], for which the “Survival (days) 3 mg/kg SSV po” value is listed as 7.6 days, the “Activity (%) 3 mg/kg SSV po” value stood at 75%, the “Survival (days) 10 mg/kg SSV po” value amounted to 8.6 days and the “Activity (%) 10 mg/kg SSV po” value stood at 99.77%.

For the compound `Nc1nccnc1C(=O)NC[C@H]1CC[C@]2(CC1)OO[C@]1(O2)C2CC3CC(C2)CC1C3` [OZ330], the “Survival (days) 3 mg/kg SSV po” value was 7.2 days, the “Activity (%) 3 mg/kg SSV po” value came out at 82% and the “Survival (days) 10 mg/kg SSV po” value is recorded as 12.2 days.

With `Cn1nnnc1SC[C@H]1CC[C@]2(CC1)OO[C@]1(O2)C2CC3CC(C2)CC1C3` [OZ331], the “Survival (days) 3 mg/kg SSV po” value is 7.0 days, the “Activity (%) 3 mg/kg SSV po” value stood at 66% and the “Survival (days) 10 mg/kg SSV po” value is reported as 9.0 days.

Take `Cn1nnnc1S(=O)(=O)C[C@H]1CC[C@]2(CC1)OO[C@]1(O2)C2CC3CC(C2)CC1C3` [OZ332]: the “Survival (days) 3 mg/kg SSV po” value is 6.0/6.0 days, the “Activity (%) 3 mg/kg SSV po” value is reported as 0%, the “Survival (days) 10 mg/kg SSV po” value is 6.0/6.0 days and the “Activity (%) 10 mg/kg SSV po” value came to 8%.

Consider `C[C@H](N)C(=O)NC[C@H]1CC[C@]2(CC1)OO[C@]1(O2)C2CC3CC(C2)CC1C3` [OZ335], for which the “Survival (days) 3 mg/kg SSV po” value amounted to 10.0 days, the “Activity (%) 3 mg/kg SSV po” value turned out to be 97% and the “Survival (days) 10 mg/kg SSV po” value was determined as 9.2 days.
